# Measurements taken from patent US6933290B2, “2-{N-(2-amino-3-(heteroaryl or aryl)propionyl)-aminoacyl}-amino}-alkylboronic acid derivatives” (Novartis AG, priority 2001, dated 2005).
# Molecular target: T1, chymotrypsin-like activity of the 20S proteasome (Homo sapiens, UniProt P20618+P28074)
# T1 construct: purified human placenta 20S proteasome; tissue Diabetes Forschungsinstitut, Düsseldorf, Germany; host or cells: human placenta
# Experiment: Inhibition of the chymotrypsin-like activity of the 20S proteasome (Suc-LLVY-AMC hydrolysis)
# Type: biochemical
# Conditions: purified human placenta 20S proteasome, Suc-LLVY-AMC substrate, read-out: IC50 [μM] (results of one or two experiments)
# Text: It is based on the hydrolysis of the fluorogenic peptide Suc-LLVY-AMC (Succinyl-leucine-leucine-vatine-tyrosine-7-amino-4-methyl-coumarin), which is cleaved exclusively at the Y-AMC bond by the 20S proteasome. Hydrolysis of this peptide is accompanied by an increase in fluorescence intensity (λex (excitation wavelength): 355 nm; μem (emission wavelength): 460 nm) due to release of the […] that accompanies diffusion apart of the hydrolysis product Suc-LLVY.
# 2 μl of a 1 mM solution of a test compound in DMSO (dimethylsulfoxide, 20 μM final concentration in the well) are preincubated for 60 min at room temperature in black 96-well microtiter plates together with a mixture of 1 μl purified human placenta 20S proteasome (Diabetes Forschungsinstitut, DÜsseldorf, Germany; about 100 ng proteasome, depending on the proteasome preparation) and 47 μl buffer-Ca (5 mM CaCl2, 20 mM Tris/HCl (Tris-(hydroxymethyl)-amino-methane hydrochloride) pH 8.0). 3 μl of a 2.67 mM solution of Suc-LLVY-AMC (Bachem, Switzerland) in DMSO (80 μM final concentration in the well) and 47 μl buffer-Ca are mixed and added. The resulting mixture is incubated for 3-24 h at 37° C. If desired, proteolysis of the substrate can be stopped by addition of 50 μl stop solution (100 mM monochloroacetic acid, 130 mM NaOH, 100 mM acetic acid, pH=4.3). The fluorescence is monitored with a FLUOROSKAN ASCENT™ microtiter plate reader.
# For each measurement series two control experiments are carried out: • 1.) 0% value: 2 μl DMSO are used in the above described assay instead of 2 μl of a 1 mM solution of a test compound in DMSO and 48 μl buffer-Ca instead of a mixture of 47 μl buffer-Ca and 1 μl purified proteasome. • 2.) 100% value: in the above described assay 2 μl DMSO are used instead of 2 μl of a 1 mM solution of the test compound in DMSO. Calculation [formula]
# The IC50 value is defined as that concentration of a compound at which the remaining activity is 50% compared to the […].
row,Structure (SMILES),IC50 [µM]
1,"COc1cc(C[C@@H](Nc2cccc(-c3ccccc3)c2)C(=O)N[C@H](C(=O)N[C@@H](CC(C)C)B(O)O)C(C)C)cc(OC)c1OC [Example 22, (R)-1-{(S)-2-[(R)-2-(Biphenyl-3-ylamino)-3-(3,4,5-trimethoxy-phenyl)-propionylamino]-3-methyl-butyrylamino}-3-methyl-butylboronic acid]",0.0017
2,"COc1cc(C[C@H](Nc2cccc(-c3ccccc3)c2)C(=O)N[C@H](C(=O)NC(CC(C)C)B2OC(C)(C)C(C)(C)O2)C(C)C)cc(OC)c1OC (stereo partly drawn) [Example 23, (S)-2-[(S)-2-(Biphenyl-3-ylamino)-3-(3,4,5-trimethoxy-phenyl)-propionylamino]-3-methyl-N-[3-methyl-1-(4,4,5,5-tetramethyl-[1,3,2]dioxaborolan-2-yl)-butyl]-butyramide]",0.0021
3,"COc1cc(C[C@H](Nc2cccc(-c3ccccc3)c2)C(=O)N[C@H](C(=O)NC(CC(C)C)B(O)O)C(C)C)cc(OC)c1OC (stereo partly drawn) [Example 24, 1-{(S)-2-[(S)-2-(Biphenyl-3-ylamino)-3-(3,4,5-trimethoxy-phenyl)-propionylamino]-3-methyl-butyrylamino}-3-methyl-butylboronic acid]",0.0021
4,"COc1ccc(C[C@H](NC(=O)Cc2cccc(Oc3ccccc3)c2)C(=O)N[C@H](C(=O)N[C@@H](CC(C)C)B2O[C@@H]3C[C@@H]4C[C@@H](C4(C)C)[C@]3(C)O2)C(C)C)cc1OC [Example 25, (S)-2-{(S)-3-(3,4-Dimethoxy-phenyl)-2-[2-(3-phenoxy-phenyl)-acetylamino]-propionylamino}-3-methyl-N-[(R)-3-methyl-1-((1S,2S,6R,8S)-2,9,9-trimethyl-3,5-dioxa-4-bora-tricyclo[6.1.1.0^2,6]dec-4-yl)-butyl]-butyramide]",0.0008
5,"COc1ccc(C[C@H](NC(=O)Cc2cccc(Oc3ccccc3)c2)C(=O)N[C@H](C(=O)N[C@@H](CC(C)C)B(O)O)C(C)C)cc1OC [Example 26, (R)-1-((S)-2-{(S)-3-(3,4-Dimethoxy-phenyl)-2-[2-(3-phenoxy-phenyl)-acetylamino]-propionylamino}-3-methyl-butyrylamino)-3-methyl-butylboronic acid]",0.001
6,"COc1cc(C[C@H](NC(=O)Cc2cccc(Oc3ccccc3)c2)C(=O)N[C@H](C(=O)N[C@@H](CC(C)C)B2O[C@@H]3C[C@@H]4C[C@@H](C4(C)C)[C@]3(C)O2)C(C)C)cc(OC)c1OC [Example 27, (S)-3-Methyl-N-[(R)-3-methyl-1-((1S,2S,6R,8S)-2,9,9-trimethyl-3,5-dioxa-4-bora-tricyclo[6.1.1.0^2,6]dec-4-yl)-butyl]-2-[(S)-2-[2-(3-phenoxy-phenyl)-acetylamino]-3-(3,4,5-trimethoxy-phenyl)-propionylamino]-butyramide]",0.0003
7,"COc1cc(C[C@H](NC(=O)Cc2cccc(Oc3ccccc3)c2)C(=O)N[C@H](C(=O)N[C@@H](CC(C)C)B(O)O)C(C)C)cc(OC)c1OC [Example 28, (R)-3-Methyl-1-{(S)-3-methyl-2-[(S)-2-[2-(3-phenoxy-phenyl)-acetylamino]-3-(3,4,5-trimethoxy-phenyl)-propionylamino]-butyrylamino}-butylboronic acid]",0.0008
8,"CC(C)C[C@H](NC(=O)[C@@H](NC(=O)[C@H](Cc1ccc(OCc2ccccc2)cc1)NC(=O)Cc1cccc(OCc2ccccc2)c1)C(C)C)B1O[C@@H]2C[C@@H]3C[C@@H](C3(C)C)[C@]2(C)O1 [Example 29, (S)-2-{(S)-3-(4-Benzyloxy-phenyl)-2-[2-(3-benzyloxy-phenyl)-acetylamino]-propionylamino}-3-methyl-N-[(R)-3-methyl-1-((1S,2S,6R,8S)-2,9,9-trimethyl-3,5-dioxa-4-bora-tricyclo[6.1.1.0^2,6]dec-4-yl)-butyl]-butyramide]",0.004
9,"CC(C)C[C@H](NC(=O)[C@@H](NC(=O)[C@H](Cc1ccc(OCc2ccccc2)cc1)NC(=O)Cc1cccc(OCc2ccccc2)c1)C(C)C)B(O)O [Example 30, (R)-1-((S)-2{(S)-3-(4-Benzyloxy-phenyl)-2-[2-(3-benzyloxy-phenyl)-acetylamino]-propionylamino}-3-methyl-butyrylamino)-3-methyl-butylboronic acid]",0.0059
10,"COc1cc(C[C@H](Nc2cccc(-c3ccccc3)c2)C(=O)N[C@@H](CC(C)C)C(=O)N[C@@H](CC(C)C)B2O[C@@H]3C[C@@H]4C[C@@H](C4(C)C)[C@]3(C)O2)cc(OC)c1OC [Example 31, (S)-2-[(S)-2-(Biphenyl-3-ylamino)-3-(3,4,5-trimethoxy-phenyl)-propionylamino]-4-methyl-pentanoic acid [(R)-3-methyl-1-((1S,2S,6R,8S)-2,9,9-trimethyl-3,5-dioxa-4-bora-tricyclo[6.1.1.0^2,6]dec-4-yl)-butyl]-amide]",0.0022
11,"COc1cc(C[C@H](Nc2cccc(-c3ccccc3)c2)C(=O)N[C@@H](CC(C)C)C(=O)N[C@@H](CC(C)C)B(O)O)cc(OC)c1OC [Example 32, (R)-1-{(S)-2-[(S)-2-(Biphenyl-3-ylamino)-3-(3,4,5-trimethoxy-phenyl)-propionylamino]-4-methyl-pentanoylamino}-3-methyl-butylboronic acid]",0.0037
12,"COc1ccc(C[C@H](Nc2cccc(-c3ccccc3)c2)C(=O)N[C@@H](CC(C)C)C(=O)N[C@@H](CC(C)C)B2O[C@@H]3C[C@@H]4C[C@@H](C4(C)C)[C@]3(C)O2)cc1OC [Example 33, (S)-2-[(S)-2-(Biphenyl-3-ylamino)-3-(3,4-dimethoxy-phenyl)-propionylamino]-4-methyl-pentanoic acid [(R)-3-methyl-1-((1S,2S,6R,8S)-2,9,9-trimethyl-3,5-dioxa-4-bora-tricyclo[6.1.1.0^2,6]dec-4-yl)-butyl]-amide]",0.0026
13,"COc1ccc(C[C@H](Nc2cccc(-c3ccccc3)c2)C(=O)N[C@@H](CC(C)C)C(=O)N[C@@H](CC(C)C)B2O[C@@H]3C[C@@H]4C[C@@H](C4(C)C)[C@]3(C)O2)cc1 [Example 35, (S)-2-[(S)-2-(Biphenyl-3-ylamino)-3-(4-methoxy-phenyl)-propionylamino]-4-methyl-pentanoic acid [(R)-3-methyl-1-((1S,2S,6R,8S)-2,9,9-trimethyl-3,5-dioxa-4-bora-tricyclo[6.1.1.0^2,6]dec-4-yl)-butyl]-amide]",0.0023
14,"COc1ccc(C[C@H](Nc2cccc(-c3ccccc3)c2)C(=O)N[C@@H](CC(C)C)C(=O)N[C@@H](CC(C)C)B(O)O)cc1 [Example 36, (R)-1-{(S)-2-[(S)-2-(Biphenyl-3-ylamino)-3-(4-methoxy-phenyl)-propionylamino]-4-methyl-pentanoylamino}-3-methyl-butylboronic acid]",0.0023
15,"COc1cc(C[C@H](Nc2cccc(-c3ccccc3)c2)C(=O)N[C@@H](C)C(=O)N[C@@H](CC(C)C)B2O[C@@H]3C[C@@H]4C[C@@H](C4(C)C)[C@]3(C)O2)cc(OC)c1OC [Example 37, (S)-2-(Biphenyl-3-ylamino)-N-{(S)-1-[(R)-3-methyl-1-((1S,2S,6R,8S)-2,9,9-trimethyl-3,5-dioxa-4-bora-tricyclo[6.1.1.0^2,6]dec-4-yl)-butylcarbamoyl]-ethyl}-3-(3,4,5-trimethoxy-phenyl)-propionamide]",0.0013
16,"COc1cc(C[C@H](Nc2cccc(-c3ccccc3)c2)C(=O)N[C@@H](C)C(=O)N[C@@H](CC(C)C)B(O)O)cc(OC)c1OC [Example 38, (R)-1-{(S)-2-[(S)-2-(Biphenyl-3-ylamino)-3-(3,4,5-trimethoxy-phenyl)-propionylamino]-propionylamino}-3-methyl-butylboronic acid]",0.0017
17,"COc1ccc(C[C@H](Nc2cccc(-c3ccccc3)c2)C(=O)N[C@@H](C)C(=O)N[C@@H](CC(C)C)B2O[C@@H]3C[C@@H]4C[C@@H](C4(C)C)[C@]3(C)O2)c(OC)c1OC [Example 39, (S)-2-(Biphenyl-3-ylamino)-N-{(S)-1-[(R)-3-methyl-1-((1S,2S,6R,8S)-2,9,9-trimethyl-3,5-dioxa-4-bora-tricyclo[6.1.1.0^2,6]dec-4-yl)-butylcarbamoyl]-ethyl}-3-(2,3,4-trimethoxy-phenyl)-propionamide]",0.0019
18,"COc1ccc(C[C@H](Nc2cccc(-c3ccccc3)c2)C(=O)N[C@@H](C)C(=O)N[C@@H](CC(C)C)B(O)O)c(OC)c1OC [Example 40, (R)-1-{(S)-2-[(S)-2-(Biphenyl-3-ylamino)-3-(2,3,4-trimethoxy-phenyl)-propionylamino]-propionylamino}-3-methyl-butylboronic acid]",0.0022
